Assay results from patent US5607967A, “Treatment of alzheimer's disease with 5-(tetradecyloxy)-2-furan carboxylic acid” (Merck & Co., Inc., priority 1994, dated 1997).

Columns and labels:
GR/NUC chimeric receptor = biological target: T1, GR/NUC chimeric receptor (Homo sapiens, UniProt Q03181); assay: Ligand dependent transcription assay, GR/NUC chimeric receptor with MMTV-luciferase reporter; assay type: cell-based
T1 construct: transfected cells, MMTV-luciferase
T1 sequence (Q03181 1-441): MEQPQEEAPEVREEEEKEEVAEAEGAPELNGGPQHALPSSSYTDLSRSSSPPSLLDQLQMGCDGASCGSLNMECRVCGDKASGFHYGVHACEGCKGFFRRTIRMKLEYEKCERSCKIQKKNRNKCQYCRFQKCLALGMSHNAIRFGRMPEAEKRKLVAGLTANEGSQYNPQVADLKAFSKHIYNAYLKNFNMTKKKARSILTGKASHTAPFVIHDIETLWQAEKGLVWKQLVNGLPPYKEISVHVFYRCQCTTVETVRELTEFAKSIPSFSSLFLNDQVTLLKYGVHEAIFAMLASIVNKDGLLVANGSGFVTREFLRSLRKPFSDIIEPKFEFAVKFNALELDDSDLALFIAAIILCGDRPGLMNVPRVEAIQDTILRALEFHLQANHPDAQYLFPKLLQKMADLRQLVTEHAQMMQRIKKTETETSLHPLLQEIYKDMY
T1 sequence (P06537 1-792 partner): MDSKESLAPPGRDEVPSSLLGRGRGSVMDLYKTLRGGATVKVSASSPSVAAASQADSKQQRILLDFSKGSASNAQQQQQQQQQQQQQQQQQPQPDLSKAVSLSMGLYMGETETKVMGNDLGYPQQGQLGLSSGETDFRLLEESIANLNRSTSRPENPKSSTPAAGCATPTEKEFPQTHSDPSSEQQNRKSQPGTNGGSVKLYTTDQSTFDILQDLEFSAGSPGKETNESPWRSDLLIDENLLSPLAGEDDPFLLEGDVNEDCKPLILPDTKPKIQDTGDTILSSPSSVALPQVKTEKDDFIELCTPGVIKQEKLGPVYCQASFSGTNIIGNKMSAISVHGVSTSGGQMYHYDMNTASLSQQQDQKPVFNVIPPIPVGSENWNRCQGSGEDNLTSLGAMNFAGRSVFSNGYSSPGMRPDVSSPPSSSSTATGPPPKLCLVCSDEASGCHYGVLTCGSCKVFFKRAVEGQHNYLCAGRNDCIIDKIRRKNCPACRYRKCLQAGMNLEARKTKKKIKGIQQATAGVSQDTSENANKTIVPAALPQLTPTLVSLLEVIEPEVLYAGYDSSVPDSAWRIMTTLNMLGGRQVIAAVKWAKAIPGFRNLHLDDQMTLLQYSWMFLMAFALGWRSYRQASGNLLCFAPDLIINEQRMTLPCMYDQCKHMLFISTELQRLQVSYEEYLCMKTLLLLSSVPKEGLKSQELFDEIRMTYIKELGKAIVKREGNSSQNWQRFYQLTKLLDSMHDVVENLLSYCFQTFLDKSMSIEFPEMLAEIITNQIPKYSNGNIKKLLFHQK
Method: Similar hybrid receptors GR/NER, GR/NUC and GR/PPAR, in identical expression plasmid backgrounds were prepared essentially as described for the construction of the GR/mPPAR and GR/NUC chimeric receptors in Schmidt et al., "Identification of a new member of the steroid hormone receptor superfamily that is activated by a peroxisome proliferator and fatty acids," Mol. Endocrinol., 6(10):1634-41, 1992, and in Boie et al., "Enantioselective activation of the peroxisome proliferator-activated receptor", J. Biol. Chem. 268(8):5530-4, 1993.
Briefly, the amino terminal portion of the mouse glucocorticoid receptor (mGR), that includes the DNA binding domain was fused to the putative ligand binding domains of the nuclear receptor NER, hNUC-I (Schmidt et al., 1992), mPPAR (Issenmann and Green, 1990) to form the respective chimeric receptors GR/NER, GR/NUC and GR/PPAR. The GR/NER chimeric receptor was constructed as described for the GR/NUC and GR/PPAR hybrid receptors (Schmidt et al., 1992; Boie et al). The cDNA sequences coding for amino acids Arg^155 and Glu^156 of the NER receptor were converted to the Xho I restriction site, that was later used for the ligation to the GR cDNA sequences that coded for the DNA binding domain. Thus, converting amino acid residues Arg^155 and Glu^156 of NER receptor to amino acid residues Ser^155 and His^156.

[1] = test system: Muscarinic receptor agonist (Pilocarpine) induced catalepsy; assay: Pilocarpine induced catalepsy (Bar method); assay type: in vivo, rat; settings: TOFA 0.4 mg/kg S.C. pretreatment
Method: (§1) Catalepsy was determined by a modification of the Bar method (Undie and Friedman, 1988). A steel bar, 1.1 cm in diameter and 50 cm long, was suspended at a height of 10 cm above the working surface. Three sides of the bench around the bar were walled off with brown cardboard, and the linings on the bench surface were selected to be of the same color with the cardboard walls. The animal's hind limbs were freely placed on the bench, the fail laid out to the back, and the forelimbs placed over the bar. The length of time a rat stayed up on the bar was noted up to a preset cut-off point of 120 s. The time was counted off upon observing any of the following actions: (1) the animal came off, placing its two forepaws on the bench, (2) the animal climbed onto or over the bar with both hind limbs, (3) the animal initiated locomotion along or around the bar. Subsequently, time readings were translated into scores by awarding a score of 1 for each successfully completed 5 s on the bar. For each observation time, catalepsy scores were averaged for all the animals in a group to give the Mean Score of the group at that observation time. Further, the scores for each animal at all the observation times were added to give the total score for that animal. The mean of this last group of numbers was called the Mean Total Score of the group.
(§2) Catalepsy scores were analyzed by computer in accordance with the statistical procedures outlined by Winer, B. J.: Statistical principles in experimental design. McGraw-Hill, New York, pp. 10-428, 1971. Generally, for a given set of comparisons, observations were subjected to an appropriate analysis of variance followed by two-tailed Dunnett or Student's t-tests to detect differences between treatment groups.
Rats were pretreated with 0.4 mg/kg TOFA or with carrier (S.C.). Twenty-four hours later, the rats were challenged with 16 mg/kg Pilocarpine, an agonist of the muscarinic cholinergic receptor, and the duration of catalepsy was monitored as described in Example 10.

[2] = test system: Dopamine D1 receptor antagonist (SCH 23390) induced catalepsy; assay: SCH 23390 induced catalepsy (Bar method); assay type: in vivo, rat; settings: for Catalepsy Duration: TOFA 0.4 mg/kg S.C. pretreatment
Method: Rats were pretreated with 0.4 mg/kg TOFA or with carrier (S.C.). Twenty-four hours later, the rats were challenged with 0.5 mg/kg SCH23390, a Dopamine D1 antagonist, and the duration of catalepsy was monitored.
as §1, §2

[3] = read-out: Fold of stimulation GR/NUC

`CCCCCCCCCCCCCCOc1ccc(C(=O)O)o1` [TOFA, 5-(tetradecyloxy)-2-furan carboxylic acid] was tested, and the “Expression mediated by GR/NUC” value (GR/NUC chimeric receptor) was “stimulated expression”, the fold induction at 2 µM (GR/NUC chimeric receptor; [3]) was 1.95 ± 0.14 and the fold induction at 10 µM (GR/NUC chimeric receptor; [3]) was 2.85 ± 0.2. The fold induction at 50 µM (GR/NUC chimeric receptor; [3]) was 3.19 ± 0.2, the “Catalepsy Duration” value ([1]; 24 h later 16 mg/kg Pilocarpine) was 84.1 ± 9.6 s and the “Catalepsy Duration” value ([1]; no challenge) was 0 s. The “Catalepsy Duration” value ([2]; 24 h later 0.5 mg/kg SCH23390) was 75 ± 17.8 s, the “Catalepsy Duration” value ([2]; no challenge) was 0 s and the “Increase of duration of SCH 23390-induced catalepsy by TOFA pretreatment” value ([2]; TOFA 0.4 mg/kg S.C., 24 h before 0.5 mg/kg SCH23390) was “at least 25 fold”.
